Experimental data from paper PMC8429170, “Ligand-binding and -scavenging of the chemerin receptor GPR1” (Cellular and Molecular Life Sciences: CMLS, 2021).
Ends that are not written are not given here. Peptide text beside a SMILES is read from it.

T1: GPR1-eYFP (human) (UniProt P46091)
T1 sequence: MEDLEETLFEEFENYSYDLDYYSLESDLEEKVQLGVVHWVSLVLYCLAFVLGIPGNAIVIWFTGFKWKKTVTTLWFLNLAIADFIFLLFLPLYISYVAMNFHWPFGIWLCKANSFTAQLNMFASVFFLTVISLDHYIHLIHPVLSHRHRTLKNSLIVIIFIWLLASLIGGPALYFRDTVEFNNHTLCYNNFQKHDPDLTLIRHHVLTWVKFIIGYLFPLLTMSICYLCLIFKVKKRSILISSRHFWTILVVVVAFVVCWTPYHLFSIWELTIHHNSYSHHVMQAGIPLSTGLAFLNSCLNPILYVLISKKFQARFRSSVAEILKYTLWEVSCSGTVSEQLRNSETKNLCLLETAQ


How the values were obtained:
GPR1 = target: T2, GPR1 (Homo sapiens, UniProt P46091); experiment: cell-based; details: for Emax: COS-7
T2 construct: expressed in transfected cells; host or cells: COS-7, transient
T2 sequence (P32120 whole entry partner, one chain of several): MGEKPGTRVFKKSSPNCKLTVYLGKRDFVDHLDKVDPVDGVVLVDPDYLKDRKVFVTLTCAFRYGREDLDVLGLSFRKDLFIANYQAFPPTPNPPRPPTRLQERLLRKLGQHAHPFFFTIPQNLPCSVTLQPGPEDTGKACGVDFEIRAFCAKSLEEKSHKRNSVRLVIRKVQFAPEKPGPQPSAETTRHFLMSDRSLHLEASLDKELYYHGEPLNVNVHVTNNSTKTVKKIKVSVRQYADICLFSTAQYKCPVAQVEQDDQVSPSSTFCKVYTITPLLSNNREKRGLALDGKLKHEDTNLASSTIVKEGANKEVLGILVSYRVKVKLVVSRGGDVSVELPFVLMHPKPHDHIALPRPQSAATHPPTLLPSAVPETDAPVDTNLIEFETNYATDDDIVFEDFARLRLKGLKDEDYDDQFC
Protocol: Arrestin recruitment was characterized by measuring the bioluminescence resonance energy transfer (BRET) ratio between luciferase-tagged arrestin3 and either GPR1-eYFP or CMKLR1-eYFP as described previously. In brief, COS-7 cells in 75 cm^2 cell culture flasks were transiently transfected overnight with 7800 ng GPR1-eYFP or CMKLR1-eYFP in pVitro2 and 200 ng Rluc8-Arr3 in pcDNA3 using MetafectenePro according to the manufacturer’s protocol. […] For kinetic measurements, cells were stimulated with agonist in buffer or buffer alone, and fluorescence was measured for 20 min using a Tecan Infinite M 200 Reader (Tecan, Männerdorf, Switzerland) using the filter sets Green1 (YFP emission, luminescence 520–570 nm) and Blue1 (luciferase luminescence 370–480 nm). For concentration–response curves, cells were stimulated with agonist or blank, and luminescence was measured after 10 min. BRET signal was calculated as the ratio of fluorescence divided by luminescence, netBRET signal was calculated by subtracting the BRET signal of unstimulated wells from the respective samples.

GPR1-eYFP (human) = target: T1, GPR1-eYFP (human)

Molecule | EC50 of arrestin3 recruitment to GPR1-eYFP (BRET with Rluc8-Arr3, COS-7 cells) (GPR1-eYFP (human)) [nM] | EC50 (GPR1) [nM] | Emax (GPR1) [%]
QRAGEDPHSFYFPGQFAFS [Chem^139−157] | – | 3.09 | 94 ± 7
Chem^149-155 (chemerin-7) (peptide) | > 1000 | – | –
YFPGQFAF [Chem^149−156] | – | 3.98 | 110 ± 16
FPGQFAFS [Chem^150−157] | – | 22.4 | 87 ± 8
QRAGEDPHSFYFPGQFAF [Chem^139−156] | – | 2.95 | 99 ± 9
C[C@@H]1NC(=O)[C@H](Cc2ccccc2)NC(=O)[C@H](CCC(N)=O)NC(=O)[C@H](NC(=O)[C@@H]2CCCN2C(=O)[C@H](Cc2ccccc2)NC(=O)[C@@H](N)Cc2ccc(O)cc2)CCSSC[C@@H](C(=O)O)NC(=O)[C@H](Cc2ccccc2)NC1=O [[4-9]-c(chemerin-9)] (HELM PEPTIDE1{Y.F.P.[O=C([C@@H](CCS[*:3])N[*:1])[*:2]].Q.F.A.F.C}$PEPTIDE1,PEPTIDE1,4:R3-9:R3$$$V2.0) | – | 3.3 | –
QRAGEDPHSFYFPGQFAF [Chem^139-156] | 2.9 | – | –
YFPGQFAF [Chem^149-156] | 4 | – | –
QRAGEDPHSFYFPGQFAFS [Chem^139-157] | 3.1 | – | –

More lines, main results first:

EC50 of arrestin3 recruitment to GPR1-eYFP (BRET with Rluc8-Arr3, COS-7 cells) (GPR1-eYFP (human)) [nM] | Molecule | EC50 (GPR1) [nM] | Emax (GPR1) [%]
> 1000 | QFYSFFPAG [scr2C9] | – | –
22 | FPGQFAFS [Chem^150-157] | – | –
> 1000 | PGQFAFS [Chem^151-157] | – | –
